# Compound: CC1=C(C(=O)N2C=CSC2=N1)CCN3CCC(=C(C4=CC=CC=C4)C5=CC=C(C=C5)F)CC3 + CC(=O)Nc1cccc(-n2c(=O)n(C3CC3)c(=O)c3c(Nc4ccc(I)cc4F)n(C)c(=O)c(C)c32)c1 [Trametinib] (partner 0.02 µM)
# Assay: relative viability (nuclei count vs DMSO), 5 days (fraction); higher = more cells survive
# Method in brief: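 Lung cancer cell lines, seeded in 1536-well plates, were treated the following day by pin tool with a single drug or with five library-drug doses (not always all listed) in √10 steps on top of a fixed anchor-drug dose. Cells were fixed and nuclei stained in one step after 5 days, and nuclei were counted. Relative viability is the nuclei count for treated wells divided by that for vehicle wells, reported as medians of duplicate plates.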
Cell Line,relative viability (first compound 0.08 µM),relative viability (first compound 0.253 µM),relative viability (first compound 0.8 µM),relative viability (first compound 2.53 µM),relative viability (first compound 8 µM)
201T,0.7,0.749,0.709,0.75,0.722
A-427,0.762,0.686,0.712,0.818,0.681
BEN,0.798,1.13,1.06,1.16,0.944
CAL-12T,0.262,0.281,0.267,0.338,0.3
COR-L23,0.748,0.612,0.5,0.731,0.372
COR-L 105,0.417,0.459,0.405,0.495,0.43
ChaGo-K-1,0.821,0.926,0.961,0.963,0.673
EKVX,0.354,0.42,0.358,0.314,0.292
EMC-BAC-2,1,,0.931,0.926,0.858
EPLC-272H,0.379,0.295,0.305,0.281,0.255
H3255,0.611,0.577,0.66,0.613,0.417
HARA,0.982,0.567,0.746,0.368,0.551
HCC-15,0.352,0.432,0.342,0.38,0.349
HCC-44,1.13,1.12,1.13,1.01,1.04
HCC-78,0.818,0.837,0.941,0.727,0.616
HCC-366,0.422,0.384,0.377,0.404,0.216
HCC-827,0.483,0.503,0.501,0.62,0.53
HOP-62,0.34,0.365,0.37,0.422,0.225
LC-2-ad,0.943,0.98,0.938,0.95,0.606
LCLC-97TM1,0.183,0.18,0.23,0.172,0.151
LCLC-103H,0.672,0.645,0.68,0.743,0.549
LK-2,0.629,0.723,0.886,0.801,0.477
LOU-NH91,0.776,0.793,0.794,0.869,0.679
LU99A,0.584,0.522,0.586,0.502,0.353

Cell Line,relative viability (first compound 0.08 µM),relative viability (first compound 0.253 µM),relative viability (first compound 0.8 µM),relative viability (first compound 2.53 µM),relative viability (first compound 8 µM)
LXF-289,0.592,0.67,0.738,0.634,0.537
NCI-H23,0.38,0.343,0.387,0.368,0.22
NCI-H322M,0.478,0.424,0.558,0.604,0.469
NCI-H358,0.12,0.121,0.127,0.133,0.136
NCI-H441,0.423,0.404,0.445,0.541,0.372
NCI-H460,0.129,0.132,0.129,0.124,0.129
NCI-H520,0.712,0.625,0.631,0.778,0.393
NCI-H596,0.703,0.815,0.913,0.863,0.708
NCI-H647,0.388,0.609,0.541,0.612,0.249
NCI-H650,0.997,0.891,0.986,1.07,0.932
NCI-H661,0.49,0.486,0.525,0.518,0.462
NCI-H727,0.342,0.365,0.366,0.397,0.39
NCI-H838,0.391,0.558,0.565,0.617,0.24
NCI-H1355,0.49,0.444,0.407,0.408,0.421
NCI-H1395,1.05,0.97,0.992,1,0.872
NCI-H1437,0.385,0.56,0.588,0.601,0.28
NCI-H1648,0.437,0.378,0.427,0.465,0.417
NCI-H1650,0.513,0.532,0.483,0.722,0.412
NCI-H1651,0.783,0.915,0.837,0.866,0.712
NCI-H1666,0.76,0.891,0.9,0.985,0.717
NCI-H1734,0.741,0.598,0.691,0.688,0.512
NCI-H1755,0.751,0.716,0.794,0.778,0.595
NCI-H1792,0.205,0.432,0.378,0.531,0.166
NCI-H1793,0.433,0.407,0.443,0.47,0.426

Cell Line,relative viability (first compound 0.08 µM),relative viability (first compound 0.253 µM),relative viability (first compound 0.8 µM),relative viability (first compound 2.53 µM),relative viability (first compound 8 µM)
NCI-H1915,0.331,0.326,0.322,0.283,0.261
NCI-H1944,0.382,0.373,0.436,0.368,0.335
NCI-H1975,0.349,0.389,0.389,0.35,0.311
NCI-H1993,0.494,0.364,0.501,0.511,0.513
NCI-H2009,0.36,0.265,0.279,0.287,0.284
NCI-H2023,0.592,0.478,0.588,0.617,0.452
NCI-H2085,0.484,0.52,0.491,0.66,0.452
NCI-H2087,0.177,0.211,0.256,0.255,0.705
NCI-H2126,0.591,0.514,0.58,0.607,0.466
NCI-H2170,1.21,0.894,0.964,0.792,0.637
NCI-H2228,0.481,0.417,0.612,0.506,0.332
NCI-H2342,0.667,0.82,0.791,0.886,0.769
NCI-H2347,0.271,0.267,0.262,0.352,0.309
NCI-H2405,0.711,,0.676,0.742,0.464
NCI-H3122,0.214,0.247,0.229,0.235,0.229
PC-3 [JPC-3],0.645,,0.834,0.822,0.664
PC-14,0.523,0.984,0.927,1.61,0.476
RERF-LC-KJ,0.833,0.893,0.837,0.794,0.578
SK-LU-1,0.526,0.424,0.479,0.645,0.402
SK-MES-1,0.578,0.523,0.545,0.594,0.474
SW 1573,0.562,0.678,0.646,0.652,0.354
UMC-11,0.461,,0.701,0.778,0.556
